Results as given in ChEMBL document CHEMBL5365395, “Optimization of a series of novel, potent and selective Macrocyclic SYK inhibitors” (Bioorg Med Chem Lett, 2023).

Assays:
SUD4 = experiment: Cytotoxicity against human SU-DHL-4 cells assessed as reduction in cell viability
[1] = Intrinsic clearance in rat hepatocytes assessed per million cells; assay type: ADME, cell-based, Hepatocyte; details: read-out: CLH
[2] = target: Voltage-gated inwardly rectifying potassium channel KCNH2 (Homo sapiens, UniProt Q12809); experiment: Inhibition of human ERG by patch clamp assay; assay type: toxicity
[3] = Intrinsic Clearance in human liver microsome; assay type: ADME; details: liver microsomes, read-out: CLH
[4] = Lipophilicity, logD of the compound in buffer/octanol volume ratio of 100:1 at pH 7.4 by shake flask method; assay type: physicochemical
[5] = Apparent permeability across apical to basolateral side in human Caco-2 cells at pH 6.5 after 45 to 120 mins by LC-MS/MS analysis; assay type: ADME, cell-based; details: Caco-2, pH 6.5, time 45-120 min
[6] = target: Tyrosine-protein kinase SYK (Homo sapiens, UniProt P43405); experiment: Inhibition of full length recombinant human SYK
[7] = Clearance in Han-Wistar rat at 1 umol/kg, iv; assay type: ADME; details: in vivo, dose 1 µmol/kg
[8] = Plasma protein binding in Han-Wistar rat assessed as fraction unbound; assay type: ADME, cell-free
[9] = Intrinsic clearance in Han-Wistar rat hepatocytes; assay type: ADME, cell-based, Hepatocyte
[10] = Oral bioavailability in Han-Wistar rat at 2 umol/kg; assay type: ADME, organism-based; details: in vivo, at 2 µmol/kg
[11] = target: Mitogen-activated protein kinase kinase kinase 9 (Homo sapiens) (UniProt P80192); experiment: Inhibition of MAP3K9 (unknown origin) at 0.1 uM relative to control
[12] = Volume of distribution at steady state in Han-Wistar rat at 1 umol/kg, iv; assay type: ADME; details: in vivo, dose 1 µmol/kg, read-out: Vdss
[13] = Hydrolytic stability of the compound at pH 10 assessed as half life; assay type: physicochemical; details: buffer
[14] = Hydrolytic stability of the compound at pH 7.4 assessed as half life; assay type: physicochemical; details: buffer
[15] = Hydrolytic stability of the compound at pH 1 assessed as half life; assay type: physicochemical; details: buffer
[16] = Intrinsic clearance in Beagle Dog hepatocytes; assay type: ADME, cell-based, Canis lupus familiaris, Hepatocyte
[17] = Clearance in Beagle Dog at 1 umol/kg, iv; assay type: ADME, Canis lupus familiaris; details: in vivo, dose 1 µmol/kg
[18] = Oral bioavailability in Beagle Dog at 2 umol/kg; assay type: ADME, organism-based, Canis lupus familiaris; details: in vivo, at 2 µmol/kg
[19] = Volume of distribution at steady state in Beagle Dog at 1 umol/kg, iv; assay type: ADME, Canis lupus familiaris; details: in vivo, dose 1 µmol/kg, read-out: Vdss

Voltage-gated inwardly rectifying potassium channel KCNH2, sequence (Q12809 whole entry): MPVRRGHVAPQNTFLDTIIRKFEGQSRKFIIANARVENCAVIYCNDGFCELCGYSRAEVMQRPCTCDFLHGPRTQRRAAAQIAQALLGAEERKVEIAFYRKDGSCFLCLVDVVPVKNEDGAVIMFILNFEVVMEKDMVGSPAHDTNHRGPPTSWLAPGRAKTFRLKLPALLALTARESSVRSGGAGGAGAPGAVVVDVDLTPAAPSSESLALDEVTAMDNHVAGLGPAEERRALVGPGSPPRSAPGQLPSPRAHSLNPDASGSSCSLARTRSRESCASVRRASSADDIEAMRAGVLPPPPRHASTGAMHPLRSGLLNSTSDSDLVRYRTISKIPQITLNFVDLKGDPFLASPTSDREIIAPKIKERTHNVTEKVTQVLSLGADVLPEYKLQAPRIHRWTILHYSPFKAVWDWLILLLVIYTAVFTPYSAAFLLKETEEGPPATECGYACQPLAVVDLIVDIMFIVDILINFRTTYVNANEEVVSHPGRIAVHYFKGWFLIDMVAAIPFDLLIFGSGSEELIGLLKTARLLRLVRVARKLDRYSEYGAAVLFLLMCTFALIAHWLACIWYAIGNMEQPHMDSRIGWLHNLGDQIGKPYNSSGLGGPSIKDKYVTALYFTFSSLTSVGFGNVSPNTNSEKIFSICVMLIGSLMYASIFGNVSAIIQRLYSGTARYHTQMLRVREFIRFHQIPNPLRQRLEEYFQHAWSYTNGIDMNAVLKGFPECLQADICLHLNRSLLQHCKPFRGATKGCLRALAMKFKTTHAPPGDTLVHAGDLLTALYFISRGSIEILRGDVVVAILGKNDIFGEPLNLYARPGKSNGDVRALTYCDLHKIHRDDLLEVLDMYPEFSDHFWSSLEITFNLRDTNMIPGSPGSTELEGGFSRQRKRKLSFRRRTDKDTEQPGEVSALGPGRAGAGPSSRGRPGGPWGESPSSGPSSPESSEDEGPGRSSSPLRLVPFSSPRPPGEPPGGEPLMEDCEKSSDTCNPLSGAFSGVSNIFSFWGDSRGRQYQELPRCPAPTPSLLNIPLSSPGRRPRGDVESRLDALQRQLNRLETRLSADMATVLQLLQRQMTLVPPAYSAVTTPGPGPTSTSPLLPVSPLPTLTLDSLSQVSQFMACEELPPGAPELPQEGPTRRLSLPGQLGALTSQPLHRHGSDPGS
Mitogen-activated protein kinase kinase kinase 9 (Homo sapiens), sequence (P80192 whole entry, looked up): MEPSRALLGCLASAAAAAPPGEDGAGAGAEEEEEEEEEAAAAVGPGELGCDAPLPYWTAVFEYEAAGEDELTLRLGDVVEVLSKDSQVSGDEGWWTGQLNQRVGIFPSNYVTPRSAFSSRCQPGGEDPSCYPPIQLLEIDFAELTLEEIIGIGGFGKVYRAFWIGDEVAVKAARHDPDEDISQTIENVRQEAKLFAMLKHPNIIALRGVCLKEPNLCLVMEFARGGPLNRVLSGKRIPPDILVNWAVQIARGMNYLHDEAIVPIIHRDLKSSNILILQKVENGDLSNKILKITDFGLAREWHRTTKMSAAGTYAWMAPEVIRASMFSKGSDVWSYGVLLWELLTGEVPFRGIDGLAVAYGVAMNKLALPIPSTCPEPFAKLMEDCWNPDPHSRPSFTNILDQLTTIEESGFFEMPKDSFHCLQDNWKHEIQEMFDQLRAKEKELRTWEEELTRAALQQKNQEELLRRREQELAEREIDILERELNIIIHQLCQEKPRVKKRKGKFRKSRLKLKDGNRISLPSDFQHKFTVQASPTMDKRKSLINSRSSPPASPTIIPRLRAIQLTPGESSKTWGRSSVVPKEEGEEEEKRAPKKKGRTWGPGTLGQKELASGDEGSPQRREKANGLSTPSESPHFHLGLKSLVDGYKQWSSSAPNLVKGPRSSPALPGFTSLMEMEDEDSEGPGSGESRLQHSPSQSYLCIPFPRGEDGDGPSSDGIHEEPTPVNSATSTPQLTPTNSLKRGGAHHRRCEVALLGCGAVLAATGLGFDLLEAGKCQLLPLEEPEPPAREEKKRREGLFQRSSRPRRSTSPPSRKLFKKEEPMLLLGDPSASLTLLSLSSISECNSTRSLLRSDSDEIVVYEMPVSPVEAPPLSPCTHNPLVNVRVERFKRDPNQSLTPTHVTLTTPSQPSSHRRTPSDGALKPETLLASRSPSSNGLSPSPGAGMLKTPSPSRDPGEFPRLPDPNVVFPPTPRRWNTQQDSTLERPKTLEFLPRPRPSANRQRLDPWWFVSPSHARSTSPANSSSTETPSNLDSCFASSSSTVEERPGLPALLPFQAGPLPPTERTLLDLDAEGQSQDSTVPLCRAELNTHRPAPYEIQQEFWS

Row | hepatocyte CLint [1] | microsomal CLint [3] | logD [4] | Papp A→B [5] | SMILES | IC50 (SUD4) | IC50 [2] | also measured
1 | 6.5 µL/min/1e6 cells | 34 µL/min/mg | 1.3 |  | Cc1nn2cc1CN(C)CCOCCNC(=O)c1nn(C[C@H](C)O)c3ccc(cc13)Nc1nccc-2n1 | 390 nM | > 22000 nM | 
2 | 4.4 µL/min/1e6 cells | 39 µL/min/mg | 1.4 |  | Cc1nn2cc1CN(C)CCOCCNC(=O)c1nn(C[C@@H](C)O)c3ccc(cc13)Nc1nccc-2n1 | 260 nM | 22000 nM | 
3 | 27 µL/min/1e6 cells | 18 µL/min/mg | 1.2 |  | Cc1nn2cc1CN(C)N1CC(CNC(=O)c3nn(C)c4ccc(cc34)Nc3nccc-2n3)C1 | 1200 nM |  | 
4 | 2.1 µL/min/1e6 cells | 28 µL/min/mg | 1.6 | 1.9 ×10⁻⁶ cm/s | Cc1nn2cc1CN(C)N1CCC(O)(CCNC(=O)c3nn(C)c4ccc(cc34)Nc3nccc-2n3)CC1 | 100 nM | 8800 nM | 
5 | 4.6 µL/min/1e6 cells | 28 µL/min/mg | 1.7 | 3.7 ×10⁻⁶ cm/s | Cc1nn2cc1CN(C)CCOCCNC(=O)c1nn(C3COC3)c3ccc(cc13)Nc1nccc-2n1 | 550 nM | 3700 nM | 
6 | 12 µL/min/1e6 cells | 44 µL/min/mg | 2.7 |  | Cc1nn2cc1CN(C)CCCCCNC(=O)c1nn(C)c3ccc(cc13)Nc1nccc-2n1 | 2200 nM |  | 
7 | 8.1 µL/min/1e6 cells | 25 µL/min/mg | 1.8 | 19 ×10⁻⁶ cm/s | Cc1nn2cc1CN(C)CCOCCNC(=O)c1nn(C)c3ccc(cc13)Nc1nccc-2n1 | 570 nM | 850 nM | IC50 [6]: 0.13 nM; clearance [7]: 16 mL/min/kg; Fu [8]: 7%; CLH [9]: 8.1 µL/min/1e6 cells; bioavailability [10]: 64%; inhibition [11]: > 70%; Vd [12]: 1.9 L/kg
8 | 198 µL/min/1e6 cells | > 300 µL/min/mg | 1.9 | 3.6 ×10⁻⁶ cm/s | CC(=O)OCCn1nc2c3cc(ccc31)Nc1nccc(n1)-n1cc(c(C)n1)CN(C)CCOCCNC2=O | 990 nM | 2100 nM | half-life [13]: < 0.5 h; half-life [14]: 6.8 h; half-life [15]: 0.7 h
9 |  |  |  |  | CNC(=O)c1nn(C)c2ccc(Nc3nccc(-n4cc(CN(C)C)c(C)n4)n3)cc12 | 240 nM |  | 
10 | 63 µL/min/1e6 cells | 229 µL/min/mg | 2.5 | 13 ×10⁻⁶ cm/s | CC(=O)OC(C)(C)Cn1nc2c3cc(ccc31)Nc1nccc(n1)-n1cc(c(C)n1)CN(C)CCOCCNC2=O | 850 nM | 1200 nM | half-life [13]: 2.9 h; half-life [14]: 72 h; half-life [15]: 6.5 h
11 | 15 µL/min/1e6 cells | 76 µL/min/mg | 2.3 |  | Cc1nn2cc1CN(C)N1CCC(CCNC(=O)c3nn(C)c4ccc(cc34)Nc3nccc-2n3)CC1 | 350 nM |  | 
12 | 3.4 µL/min/1e6 cells | 52 µL/min/mg | 1.6 |  | Cc1nn2cc1CN(C)CCOCCNC(=O)c1nn(CC(C)(C)O)c3ccc(cc13)Nc1nccc-2n1 | 480 nM | 8000 nM | 
13 | 163 µL/min/1e6 cells | > 300 µL/min/mg | 3.1 | 8 ×10⁻⁶ cm/s | Cc1nn2cc1CN(C)CCOCCNC(=O)c1nn(CCOC(=O)C(C)(C)C)c3ccc(cc13)Nc1nccc-2n1 | 1000 nM | 1100 nM | half-life [13]: 5 h; half-life [14]: 30 h; half-life [15]: > 100 h
14 | < 1.6 µL/min/1e6 cells | 23 µL/min/mg | 1.2 | 1.12 ×10⁻⁶ cm/s | Cc1nn2cc1CN(C)CCOCCNC(=O)c1nn(CCO)c3ccc(cc13)Nc1nccc-2n1 | 280 nM | > 39000 nM | clearance [7]: 33 mL/min/kg; Fu [8]: 16%; CLH [16]: < 1 µL/min/1e6 cells; CLH [9]: < 1.5 µL/min/1e6 cells; clearance [17]: 9 mL/min/kg; bioavailability [18]: 0.38%; bioavailability [10]: 0.9%; Vd [19]: 1.9 L/kg; Vd [12]: 2.1 L/kg
